Earlier results as cited in patent publication US20260022280A1, “LOW VOC SOLVENT CEMENT FORMULATION WITH REDUCED TOXICITY AND RAPID CURING” (Ashirvad Pipes Pvt Ltd, priority 2022, published 2026).
Like-named read-outs stand apart in the source and are kept apart here.

Experiments:
[1] = for ECHA Concern: Yes / No
Rat [2] = settings: in vivo
[3] = total solubility parameter
[4] = solvents
Rat [5] = settings: 4 h
Mouse = settings: 4 h
Rat [6] = settings: Rat male and female

| SMILES | ECHA Concern [1] | Vapour Pressure (at 20° C.) | further results |
| --- | --- | --- | --- |
| CCOC(C)OCC [1,1 Diethoxy ethane] | Yes | 20.25 mm Hg | – |
| CCOCCOCC [1,2 Diethoxy ethane] | Yes | 9 mm Hg | – |
| C1COCO1 [1,3 Dioxolane] | – | – | LD50 (Rat [2]; po): 5200 mg/kg |
| CC1CCCO1 (stereo not shown) [2-Methyl tetrahydrofuran] | No | 102 mm Hg | – |
| CC(C)=O [ACE, Acetone] | No | 180 mm Hg | SPo (Total) [3]: 9.8 (Cal/cm^3)^1/2; Density [4]: 0.78 g/cc |
| CC(=O)CC(C)=O [Acetylacetone] | – | 2.96 mm Hg | – |
| O=C1CCCCC1 [CYH, Cyclohexanone] | No | 3.75 mm Hg | SPo (Total) [3]: 9.6 (Cal/cm^3)^1/2; LD50 Dermal (Rabbit): 947 mg/kg; LD50 Oral (Rat [2]): 1544 mg/kg; LD50 Inhalation (Rat [5]; Rat): 8000 ppm |
| O=C1CCCC1 [Cyclopentanone] | No | 11.4 mm Hg | – |
| COC1CCCC1 [Cyclopentyl Methyl Ether] | No | – | Vapour Pressure ((25° C.)): 44.92 mm Hg |
| CCC(=O)CC [Diethyl ketone] | No | 15 mm Hg | – |
| COC(=O)OC [Dimethyl Carbonate] | No | – | Vapour Pressure ((25° C.)): 55.5 mm Hg |
| COC(=O)CCCCC(=O)OC [Dimethyl adipate] | No | 0.06 mm Hg | – |
| C[S+](C)[O-] [Dimethyl sulfoxide] | No | 0.44 mm Hg | – |
| CN(C)C=O [Dimethylformamide] | – | 3.67 mm Hg | – |
| CCO [Ethanol] | Yes | 43.5 mm Hg | – |
| CCOC(C)=O [Ethyl acetate] | No | 75 mm Hg | – |
| CCC(C)=O [MEK, Methyl Ethyl Ketone] | – | 15 mm Hg | LC50 Inhalation (Mouse): 32.000 mg/m3; Density [4]: 0.80 g/cc |
| CCCC(C)=O [MPK, Methyl Propyl Ketone] | No | 12 mm Hg | SPo (Total) [3]: 9.6 (Cal/cm^3)^1/2; LD50 Oral (Rat [2]): > 16000 mg/kg; Density [4]: 0.80 g/cc; LD50 Dermal (Rat [6]): > 6480 mg/kg |
| CO [Methanol] | – | 96.75 mm Hg | – |
| CCCCCC(C)=O [Methyl amyl ketone] | No | 1.5 mm Hg | – |
| CC(=O)CCC(C)C [Methyl iso amyl ketone] | Yes | 4.5 mm Hg | – |
| CC(=O)C(C)C [Methyl iso propyl ketone] | No | 41.25 mm Hg | – |
| CN1CCCC1=O [N-Methyl-2-Pyrrolidone] | Yes | 0.29 mm Hg | – |
| CCCCOC(C)=O [N-butyl acetate] | No | – | – |
| CCN1CCCCCC1=O [N-ethyl caprolactam] | No | – | – |
| COC(C)=O [N-methylacetate] | Yes | 173 mm Hg | – |
| C1CCOC1 [THF, Tetrahydrofuran] | Yes | 145 mm Hg | Hazard Classification & labelling ([1]; ECHA, harmonised classification / REACH registrations): suspected to be Carcinogenic; LC50 Inhalation (Rat [5]; Rat male and female): 4 h −> 16.9 mg/l; Density [4]: 0.88 g/cc; Vapour Pressure (at 20° C., listed as Tetrahydrofuran): 144.76 mm Hg |
| CC(=O)OC(C)(C)C [t-butyl acetate] | No | – | Vapour Pressure ((25° C.)): 47.25 mm Hg |
| O=C1CCCO1 [γ-Butyrolactone] | No | 1.12 mm Hg | – |
